Laboratory results published in patent publication US20070105822A1, “Novel uses of known drugs” (priority 2003, published 2007).

How the values were obtained:
[1] = in vivo; cited from earlier work
Vγ9JPVδ2 T cells = experiment: IFNγ ELISpot with Vγ9JPVδ2 T cell clone Bob and spinner HeLa antigen presenting cells; assay type: cell-based, human; settings: 1,000 Vγ9JPVδ2 T cells, 25,000 spinner HeLa cells per well, 6 hours; FIG. 1A
Procedure: (§1) γδ T cells were isolated from human peripheral blood using a magnetic separation kit (TCR γ/δ Microbead Kit and MS columns from Miltenyi Biotech). Once isolated, cells were resuspended in T cell medium (RPMI supplemented with 100 U/ml penicillin, 100 μg/ml streptomycin, 10% FCS, 10% T-STIM (BD Biosciences), 200 U/ml Proleukin (Chiron)) containing 2×10^6 γ-irradiated PMBC/ml from three individuals and 2 μg/ml PHA. Cells were maintained with T cell medium, and restimulated with mixed irradiated PBMC and PHA every three weeks. For cloning, the same mix was used to grow cells by limiting dilution in 96-well U-boftomed plates. Cells that grew were confirmed to be γδ T cells with Vγ9 antibody.
(§2) γδ T cells were washed in RPMI and incubated overnight in R10 at 37° C. 96-well nitrocellulose plates (Millipore) were incubated overnight at 4° C. with 15 μg/ml antihuman-IFN-γ primary antibody (clone 1-D1K; Mabtech, Sweden). The plates were then washed twice with RPMI and blocked with R10 for 3 hours at 37° C. R10 was decanted by inversion and assays applied to each well before incubation at 37° C. as detailed below. Assays were terminated by washing once in water, followed by 5 washes in PBS. Secondary antibody (anti-human-IFN-γ-Biotin antibody clone 7-B6-1; Mabtech) was applied at 1 μg/ml and the plate incubated for 100 minutes at room temperature (RT). […]

human PBMC = experiment: TNFα ELISA on direct ex vivo human PBMC exposed to nBPs; assay type: cell-based; settings: 10 μM risedronate or 100 μM pamidronate, 12 hours, FIG. 1B
Procedure: γδ T cells were washed in RPMI and incubated overnight in R10 at 37° C. 96-well nitrocellulose plates (Millipore) were incubated overnight at 4° C. with 15 μg/ml antihuman-IFN-γ primary antibody (clone 1-D1K; Mabtech, Sweden). The plates were then washed twice with RPMI and blocked with R10 for 3 hours at 37° C. R10 was decanted by inversion and assays applied to each well before incubation at 37° C. as detailed below. Assays were terminated by washing once in water, followed by 5 washes in PBS. Secondary antibody (anti-human-IFN-γ-Biotin antibody clone 7-B6-1; Mabtech) was applied at 1 μg/ml and the plate incubated for 100 minutes at room temperature (RT). The plate was washed 6 times with PBS before application of Streptavidin-ALP (1:1000 in PBS; Mabtech) for 40 minutes at RT. […] A TNFα ELISA kit (Peprotech) was used in accordance with the manufacturers instructions.
In FIG. 1 (B), nBPs are shown to stimulate TNFA production from direct ex vivo human PBMC. […] 60 μl aliquots were removed at the specified time and added to TNFα ELISA assays.

Vγ9JPVδ2 T cell clones = experiment: TNFα ELISA on Vγ9JPVδ2 T cell clones activated by risedronate; assay type: cell-based, human; settings: 10 μM risedronate, 10^6 T cells, clones P, M and Bob; FIG. 1C
Procedure: as §1, §2

[2] = system: human PBMC depleted of γδ T cells; experiment: TNFα ELISA on PBMC after magnetic depletion of γδ T cells; assay type: cell-based; settings: 100 μM pamidronate, 10 μM risedronate; FIG. 2A, 2B
Procedure: γδ T cells were washed in RPMI and incubated overnight in R10 at 37° C. 96-well nitrocellulose plates (Millipore) were incubated overnight at 4° C. with 15 μg/ml antihuman-IFN-γ primary antibody (clone 1-D1K; Mabtech, Sweden). The plates were then washed twice with RPMI and blocked with R10 for 3 hours at 37° C. R10 was decanted by inversion and assays applied to each well before incubation at 37° C. as detailed below. Assays were terminated by washing once in water, followed by 5 washes in PBS. Secondary antibody (anti-human-IFN-γ-Biotin antibody clone 7-B6-1; Mabtech) was applied at 1 μg/ml and the plate incubated for 100 minutes at room temperature (RT). The plate was washed 6 times with PBS before application of Streptavidin-ALP (1:1000 in PBS; Mabtech) for 40 minutes at RT. […]
10^8 human PBMC were incubated with 10 μg/ml of anti-human pan-γδ antibody for 30 minutes on ice. […] The success of depletion was determined by FACS analysis with the anti-CD3 and pan-γδ antibodies detailed above, and was >95% efficient in all cases shown.
5×10^6 PBMC from a healthy donor+/−magnetic depletion of γδ T cells were suspended in 1 ml of R10+/−antigen in 75×5 mm FACS tubes at 37° C. and 5% CO2 for the times shown. […] The percentage of cytokine positive cells (fluorescence intensity>20) is shown in the upper right corner of each panel.

Vγ9-expressing T cells = experiment: Intracellular cytokine staining (ICS) of fresh PBMC exposed to nBPs; assay type: cell-based, human; settings: for IL6 and TNFα production by Vγ9-expressing cells by ICS: 100 μM pamidronate, FIG. 2D
Procedure: 10^6 fresh PBMC were incubated in FACS tubes with brefeldin A (10 μg/ml R10) for 5 hours after pulsing with relevant antigens for 1 hour. The cells were then washed, permeabilised in 20% FACSLyse (BD Biosciences), washed twice in ice cold PBS/0.1% BSA and stained on ice with pre-titred APC-conjugated anti-IFNγ, anti-TNFα and anti-IL-2 and PE-conjugated anti-Vγ9 mAbs for 20 minutes. For single cytokine analysis (FIG. 2D), cells were stained with PE-conjugated anti-IL6, APC-conjugated anti-TNFα and FITC-conjugated anti-Vγ9 antibodies. In each case, cells were then washed, resuspended in PBS & analysed immediately.
5×10^6 PBMC from a healthy donor+/−magnetic depletion of γδ T cells were suspended in 1 ml of R10+/−antigen in 75×5 mm FACS tubes at 37° C. and 5% CO2 for the times shown. 60 μl of cell supernatant was removed and applied to TNFα ELISA plates in duplicate and developed according to the manufacturers instructions. Standard deviation from the mean of the two replicate ELISAs is shown although, in most cases, this error is smaller than the plot symbol. In (C), exposure to nBPs activates PBMC that express a Vγ9 receptor and not other T cells or B cells. 10^6 fresh human PBMC were exposed to R10 (top panel) or R10+10 μM risedronate (bottom panel) for 6 hours in an intracellular cytokine staining (ICS) assay. Plots show all the cells in the lymphocyte gate stained for PE-Vγ9 and APC-cytokines (TNFα, IL2, and IFNγ). Exposure to risedronate induces cytokine production only in lymphocytes that express a Vγ9 TCR. The percentage of total lymphocytes in the Vγ9^+ cytokine^+ gate shown is indicated in the upper right of each panel. Almost 10% of the lymphocytes expressing a Vγ9 receptor are activated by exposure to nBPs. […] Plots are gated to show only Vγ9-expressing lymphocytes. […] The percentage of cytokine positive cells (fluorescence intensity>20) is shown in the upper right corner of each panel.

γδ T cell = settings: cited from earlier work
circulating γδ T cells = settings: cited from earlier work

CC(O)(P(=O)(O)O)P(=O)(O)O [etidronate, disodium etidronate]
acute phase response [1]: has not been observed

O=P(O)(O)C(Sc1ccc(Cl)cc1)P(=O)(O)O [tiludronate]
acute phase response [1]: has not been observed

O=P(O)(O)C(O)(Cc1cccnc1)P(=O)(O)O [risedronate, risedronate sodium]
activation of clonal Vγ9JPVδ2 T cells by IFNγ ELISpot (Vγ9JPVδ2 T cells): activate
TNFα production from direct ex vivo human PBMC (human PBMC): large amounts of TNFα
activation (TNFα production) of Vγ9JPVδ2 T cell clones (Vγ9JPVδ2 T cell clones): extremely rapid
TNFα production by PBMC after magnetic depletion of γδ T cells [2]: removed the ability of PBMC to produce TNFα
lymphocytes expressing a Vγ9 receptor activated (cytokine+ by ICS) (Vγ9-expressing T cells; 10 μM risedronate (100 μM pamidronate, data not shown), 6 hours, TNFα, IL2, IFNγ staining, FIG. 2C): ~10%
expression of the Vγ9 TCR (Vγ9-expressing T cells; 10 μM risedronate, 6 hours, ICS): lowers the expression of the Vγ9 TCR
IL6 and TNFα production by Vγ9-expressing cells by ICS (Vγ9-expressing T cells; 10 μM risedronate): make both IL6 and TNFα
concentration stimulating γδ T cell expansion from human PBMC (γδ T cell): ≥ 10 nM

O=P(O)(O)C(Cl)(Cl)P(=O)(O)O [clodronate, disodium clodronate]
acute phase response [1]: has not been observed

NCCC(O)(P(=O)(O)O)P(=O)(O)O [pamidronate, disodium pamidronate]
activation of clonal Vγ9JPVδ2 T cells by IFNγ ELISpot (Vγ9JPVδ2 T cells): activate
TNFα production from direct ex vivo human PBMC (human PBMC): large amounts of TNFα
TNFα production by PBMC after magnetic depletion of γδ T cells [2]: removed the ability of PBMC to produce TNFα
IL6 and TNFα production by Vγ9-expressing cells by ICS (Vγ9-expressing T cells; 10 μM risedronate): make both IL6 and TNFα
number of circulating γδ T cells in patients with acute phase reaction (circulating γδ T cells; 1 and 3 weeks post-infusion): substantial increase
γδ T cells as % of CD3+ cells post-infusion (circulating γδ T cells; one patient, expanded from 4.6%): 70%
